Numbering of substitutions follows the chain as printed. Read-outs that look alike come from different tables or passages of the source. Where a SMILES comes first, the peptide text is derived from it.
Assays:
[1] = target: T1, KcsA-Kv1.2 T+F chimera (Streptomyces lividans, UniProt P0A334, R52A/G53D/A54E/P55R/G56E/A57S/L59F/I60P/T61S/Y62I/R64D/L81M/Y82V/V84T); assay: Phage-binding competition assay, KcsA-Kv1.2 T+F; design: species or system human Kv1.2 turret and filter in Streptomyces lividans KcsA; conditions: rank by competition IC50 among MTX, ShK, KTX1
T1 sequence (P0A334 1-160 R52A/G53D/A54E/P55R/G56E/A57S/L59F/I60P/T61S/Y62I/R64D/L81M/Y82V/V84T): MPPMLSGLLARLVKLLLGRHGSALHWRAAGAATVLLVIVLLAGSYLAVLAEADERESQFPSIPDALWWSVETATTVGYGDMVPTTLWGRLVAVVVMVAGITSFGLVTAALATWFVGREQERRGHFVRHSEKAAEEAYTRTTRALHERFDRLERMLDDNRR
Protocol: (§1) Phage stock solutions were diluted to working concentration with phage resuspension buffer supplemented with 2 mM DDM. For protein immobilization, the following amounts were used in a final volume of 50 μl/well: wt KcsA, 0.1 μg; KcsA-Kv1.1 T-only, 0.005 μg; KcsA-Kv1.1 T+F, 0.02 μg; KcsA-Kv1.2 T-only, 0.01 μg; KcsA-Kv1.2 T+F, 0.1 μg; KcsA-Kv1.3 T-only, 0.01 μg; and KcsA-Kv1.3 T+F, 0.1 μg. Protein samples were diluted in 50 μl of storage buffer (20 mM Tris pH8.0, 300 mM KCl, 2 mM DDM) and were added to the designated wells of a Pierce Clear, 96-Well Nickel Coated Plate (15442, Thermo Fisher Scientific), then incubated for 1 h at room temperature on a horizontal shaker at 130 rpm. The plate was blocked for 1 h at room temperature with 180 μl/well TBS-BSA supplemented with 1 mM DDM. Following blocking, the wells were washed 4× with washing buffer (300 μl TBS-Tween, 0.1% v/v) using a Wellwash Versa microplate washer (Thermo Fisher Scientific); then 50 μl phage solution (in TBS-BSA-Tween, 0.1% v/v, 2 mM DDM) at determined phage concentration was added to the wells and incubated for 1 h at room temperature on a horizontal shaker. The plate was washed 4× with washing buffer, then 50 μl anti-M13 IgG HRP (MA5-36125, Invitrogen) diluted to 1:2500 in TBS-Tween (0.1% v/v) was added to the wells and incubated for 1 h at room temperature. The plate was washed again 4× with 300 μl/well washing buffer. Finally, 50 μl/well 1-Step Ultra TMB-ELISA solution (34028, Thermo Fisher Scientific) was added to the wells, and the developing signal was stopped with 50 μl 1M HCl after 5 to 10 min. The light absorbance signal was read at 450 nm with Byonoy absorbance 96 plate reader (Byonoy GmbH).
(§2) For protein immobilization, the following amounts were used in a final volume of 50 μl/well: KcsA-Kv1.1 T-only, 0.005 μg; KcsA-Kv1.1 T+F, 0.01 μg; KcsA-Kv1.2 T-only, 0.025 μg; KcsA-Kv1.2 T+F, 0.0125 μg; KcsA-Kv1.3 T-only, 0.01 μg; and KcsA-Kv1.3 T+F, 0.1 μg. Protein samples were diluted in storage buffer. Binding of given concentrations of relevant ligand-displaying phages quantified by light absorbance ([…]) were investigated in a similar manner as in phage ELISA-binding assay, while different concentrations of competing toxin test substances were applied simultaneously. The results were converted to percent inhibitions (percent displacement) of the indicator phage binding, and relative affinities of the tested toxins were assessed by plotting percent displacements against log concentrations and determining half maximal inhibitory concentrations (IC50) by sigmoidal curve fitting using “Sigmoidal dose-response (variable slope) with least squares method” algorithm in GraphPad Prism 8 using the following equation: Y=Bottom+Top−Bottom/1+10^(LogEC50−×)⋅HillSlope

[2] = target: T2, KcsA-Kv1.2 T+F chimera (Streptomyces lividans, UniProt P0A334, A54E/A57S/G53D/G56E/I60P/L59F/L81M/P55R/R52A/R64D/T61S/V84T/Y62I/Y82V); assay: Phage-binding competition assay, KcsA-Kv1.2 T+F; design: species or system human Kv1.2 turret and filter in Streptomyces lividans KcsA
T2 sequence (P0A334 1-160 R52A/G53D/A54E/P55R/G56E/A57S/L59F/I60P/T61S/Y62I/R64D/L81M/Y82V/V84T): T1 sequence (P0A334 1-160 R52A/G53D/A54E/P55R/G56E/A57S/L59F/I60P/T61S/Y62I/R64D/L81M/Y82V/V84T)
Protocol: as §1, §2

[3] = target: T3, KcsA-Kv1.3 T-only chimera (Streptomyces lividans, UniProt P0A334, A54D/A57S/G53D/G56T/I60S/L59F/Q58G/R52A/R64D/T61S/Y62I); assay: Phage-binding competition assay, KcsA-Kv1.3 T-only; design: species or system human Kv1.3 turret in Streptomyces lividans KcsA; conditions: for IC50: HgTx1-phage competition, T-only KcsA-Kv1.3, value given in figure, sigmoidal fit to means of three replicates, read-out: IC50 (Fig. 6E); for Rank, T-only chimera (Kv1.3): rank by competition IC50 among Vm24, HgTx1, KTX1
T3 construct: made in house; host or cells: E. coli XL1-Blue (pQE30)
T3 sequence (P0A334 1-160 R52A/G53D/A54D/G56T/A57S/Q58G/L59F/I60S/T61S/Y62I/R64D): T1 sequence (P0A334 1-160 R52A/G53D/A54E/P55R/G56E/A57S/L59F/I60P/T61S/Y62I/R64D/L81M/Y82V/V84T) with E54D, R55P, E56T, Q58G, P60S, M81L, V82Y, T84V
Protocol: as §1, §2

[4] = target: T4, KcsA-Kv1.3 T+F chimera (Streptomyces lividans, UniProt P0A334, A54D/A57S/G53D/G56T/I60S/L59F/L81M/Q58G/R52A/R64D/T61S/Y62I/Y82H); assay: Phage-binding competition assay, KcsA-Kv1.3 T+F; design: species or system human Kv1.3 turret and filter in Streptomyces lividans KcsA; conditions: for IC50 / rank order of affinities, competition, KcsA-Kv1.3 T+F: HgTx1-phage competition; for IC50: T+F KcsA-Kv1.3, value given in figure, sigmoidal fit to means of three replicates, read-out: IC50 (Fig. 6F); for rank order of affinities, competition, KcsA-Kv1.3 T+F: Fig. 6F; for Rank, T+F chimera (Kv1.3): rank by competition IC50 among Vm24, HgTx1, KTX1
T4 construct: made in house; host or cells: E. coli C41(DE3) (pET45b)
T4 sequence (P0A334 1-160 R52A/G53D/A54D/G56T/A57S/Q58G/L59F/I60S/T61S/Y62I/R64D/L81M/Y82H): T1 sequence (P0A334 1-160 R52A/G53D/A54E/P55R/G56E/A57S/L59F/I60P/T61S/Y62I/R64D/L81M/Y82V/V84T) with E54D, R55P, E56T, Q58G, P60S, V82H, T84V
Protocol: as §1, §2

Compound	Rank, T+F chimera (Kv1.2) [1]	IC50 ([2]; HgTx1-phage competition, KcsA-Kv1.2 T+F, value given in figure, sigmoidal fit to means of three replicates, read-out: IC50 (Fig. 7F)) [nM]	IC50 [3] [nM]	Rank, T-only chimera (Kv1.3) [3]	IC50 [4] [nM]	rank order of affinities, competition, KcsA-Kv1.3 T+F [4]	Rank, T+F chimera (Kv1.3) [4]	IC50 ([2]; displacement of HgTx1-phage, KcsA-Kv1.2 T+F 0.0125 μg/well on nickel-coated plate, mean ± SD (n = 3), read-out: IC50, T+F chimera (Kv1.2)) [nM]
CC[C@H](C)[C@@H]1NC(=O)[C@@H]2CSSC[C@H](NC(=O)[C@H](CO)NC(=O)[C@@H](N)C(C)C)C(=O)N[C@@H]([C@@H](C)O)C(=O)NCC(=O)N[C@@H](CO)C(=O)N[C@@H](CCCCN)C(=O)N[C@@H](CC(=O)O)C(=O)N[C@@H](CSSC[C@@H](C(=O)N[C@@H](CCCCN)C(=O)N[C@H]3CSSC[C@@H](C(N)=O)NC(=O)CNC(=O)[C@H](Cc4ccc(O)cc4)NC3=O)NC(=O)[C@H](CO)NC(=O)[C@H](CCCCN)NC(=O)[C@H](CC(N)=O)NC1=O)C(=O)N[C@@H](Cc1ccc(O)cc1)C(=O)N[C@@H](C)C(=O)N1CCC[C@H]1C(=O)N[C@H]1CSSC[C@H](NC(=O)CNC(=O)[C@H]([C@@H](C)O)NC(=O)[C@H](CCC(N)=O)NC(=O)[C@H](CCCCN)NC(=O)[C@H](CCCNC(=N)N)NC1=O)C(=O)N1CCC[C@H]1C(=O)N[C@@H](CC(N)=O)C(=O)N[C@@H](C)C(=O)N[C@@H](CCCCN)C(=O)N2 [MTX, Maurotoxin] (HELM PEPTIDE1{V.S.C.T.G.S.K.D.C.Y.A.P.C.R.K.Q.T.G.C.P.N.A.K.C.I.N.K.S.C.K.C.Y.G.C.[am]}$PEPTIDE1,PEPTIDE1,3:R3-24:R3|PEPTIDE1,PEPTIDE1,9:R3-29:R3|PEPTIDE1,PEPTIDE1,13:R3-19:R3|PEPTIDE1,PEPTIDE1,31:R3-34:R3$$$V2.0; N-terminus and C-terminus assumed)	1	0.129	–	–	–	–	–	–
CC[C@H](C)[C@@H]1NC(=O)CNC(=O)[C@H](Cc2ccccc2)NC(=O)[C@H](CCC(N)=O)NC(=O)[C@H](C)NC(=O)[C@H](CCCCN)NC(=O)[C@@H]2CSSC[C@@H](C(=O)N[C@@H](Cc3ccc(O)cc3)C(=O)N3CCC[C@H]3C(=O)N[C@@H](Cc3c[nH]cn3)C(=O)O)NC(=O)[C@H](CCCCN)NC(=O)[C@@H]3CSSC[C@H](NC(=O)[C@H](CCC(N)=O)NC(=O)[C@H](CCCCN)NC(=O)[C@@H]4CCCN4C(=O)[C@H](CO)NC(=O)[C@H]([C@@H](C)O)NC(=O)[C@@H](NC(=O)[C@H](CCCCN)NC(=O)[C@@H](NC(=O)[C@H](CC(=O)O)NC(=O)[C@@H](NC(=O)[C@@H](NC(=O)[C@@H](N)[C@@H](C)O)C(C)C)[C@@H](C)CC)C(C)C)CSSC[C@H](NC(=O)[C@H](CCCCN)NC(=O)[C@H](C)NC(=O)CNC(=O)[C@H](C)NC(=O)[C@H](CCCNC(=N)N)NC1=O)C(=O)N[C@@H](CCSC)C(=O)N[C@@H](CC(N)=O)C(=O)NCC(=O)N[C@@H](CCCCN)C(=O)N3)C(=O)N[C@@H](CC(C)C)C(=O)N1CCC[C@H]1C(=O)N1CCC[C@H]1C(=O)N2 [HgTx1, Hongotoxin-1] (HELM PEPTIDE1{T.V.I.D.V.K.C.T.S.P.K.Q.C.L.P.P.C.K.A.Q.F.G.I.R.A.G.A.K.C.M.N.G.K.C.K.C.Y.P.H}$PEPTIDE1,PEPTIDE1,7:R3-29:R3|PEPTIDE1,PEPTIDE1,13:R3-34:R3|PEPTIDE1,PEPTIDE1,17:R3-36:R3$$$V2.0; N-terminus and C-terminus assumed)	–	–	0.671	3	0.107	Vm24 > HgTx1 > KTX1	2	–
CC[C@H](C)[C@H](NC(=O)[C@H](C)NC(=O)[C@H](C)NC(=O)[C@H](C)N)C(=O)N[C@@H](CO)C(=O)N[C@H]1CSSC[C@@H]2NC(=O)[C@H](CCCCN)NC(=O)CNC(=O)[C@H](CC(N)=O)NC(=O)[C@H](CCCCN)NC(=O)[C@@H]3CSSC[C@@H](C(N)=O)NC(=O)[C@H](Cc4ccc(O)cc4)NC(=O)[C@H](Cc4ccc(O)cc4)NC(=O)[C@@H]4CSSC[C@H](NC(=O)[C@H](CCCCN)NC(=O)[C@@H]5CCCN5C(=O)[C@@H]5CCCN5C(=O)[C@H](CSSC[C@H](NC(=O)[C@H](CCCCN)NC(=O)[C@H](CCCNC(=N)N)NC(=O)[C@H](CC(N)=O)NC(=O)[C@H](CCSC)NC2=O)C(=O)N[C@@H](CCCCN)C(=O)N4)NC(=O)[C@H](CCC(=O)O)NC(=O)[C@@H]2CCCN2C(=O)[C@H](CO)NC(=O)CNC(=O)[C@H](C(C)C)NC1=O)C(=O)N[C@@H](CCCNC(=N)N)C(=O)N[C@@H](C)C(=O)N[C@@H](CCC(N)=O)C(=O)NCC(=O)N3 [Vm24, Vm24 toxin]	–	–	0.603	2	0.0359	Vm24 > HgTx1 > KTX1	1	–
CC[C@H](C)[C@@H]1NC(=O)[C@@H](NC(=O)[C@H](CO)NC(=O)[C@@H](N)CCCNC(=N)N)CSSC[C@@H](C(=O)O)NC(=O)[C@H]([C@@H](C)O)NC(=O)CNC(=O)[C@@H]2CSSC[C@@H]3NC(=O)[C@H](CCC(N)=O)NC(=O)[C@H](Cc4ccccc4)NC(=O)[C@H](C)NC(=O)[C@H]([C@@H](C)O)NC(=O)[C@H](CSSC[C@H](NC(=O)[C@H](Cc4ccccc4)NC(=O)[C@H](CO)NC(=O)[C@H](CC(C)C)NC(=O)[C@H](CCCNC(=N)N)NC(=O)[C@H](Cc4ccc(O)cc4)NC(=O)[C@H](CCCCN)NC(=O)[C@H](CCSC)NC(=O)[C@H](CO)NC(=O)[C@H](Cc4c[nH]cn4)NC(=O)[C@H](CCCCN)NC3=O)C(=O)N[C@@H](CCCNC(=N)N)C(=O)N[C@@H](CCCCN)C(=O)N[C@@H]([C@@H](C)O)C(=O)N2)NC(=O)[C@H](CCCNC(=N)N)NC(=O)[C@H](CO)NC(=O)[C@H](CCCCN)NC(=O)[C@@H]2CCCN2C(=O)[C@H]([C@@H](C)CC)NC(=O)[C@H]([C@@H](C)O)NC(=O)[C@H](CC(=O)O)NC1=O [ShK, Stichodactyla toxin]	2	–	–	–	–	–	–	15.9

Reference: publication PMC11002876, “KcsA-Kv1.x chimeras with complete ligand-binding sites provide improved predictivity for screening selective Kv1.x blockers” (The Journal of Biological Chemistry, 2024)
